Source: US20030165864A1, “Genes regulated by DNA methylation in tumor cells” (priority 2001, published 2003)

What was measured:
HT-29 cells [1] = conditions: cultured HT-29 cells, colorectal cancer cell line; cited from earlier work
HT-29 cells [2] = conditions: inhibition parallels induction of IFN responsive genes; cited from earlier work
[3] = system: HT29 colorectal carcinoma cells; assay: microarray differential expression in 5-aza-2-deoxycytidine-treated versus untreated HT29 cells; assay type: cell-based, human; conditions: for D.E. (log2): 500 nM, treated vs untreated HT29 cells
Text: Incyte clones represent template sequences derived from the LIFESEQ GOLD assembled human sequence database (Incyte Genomics). In cases where more than one clone was available for a particular template, the 5′-most clone in the template was used on the microarray. The HUMAN GENOME GEM series 1-4 microarrays (Incyte Genomics) contain 37,715 array elements which represent 12,989 annotated clusters and 24,726 unannotated clusters.
To construct microarrays, cDNAs were amplified from bacterial cells using primers complementary to vector sequences flanking the cDNA insert. Thirty cycles of PCR increased the initial quantity of cDNAs from 1-2 ng to a final quantity greater than 5 μg. Amplified cDNAs were then purified using SEPHACRYL-400 columns (APB). Purified cDNAs were immobilized on polymer-coated glass slides. Glass microscope slides (Corning, Corning N.Y.) were cleaned by ultrasound in 0.1% SDS and acetone, with extensive distilled water washes between and after treatments. Glass slides were etched in 4% hydrofluoric acid (VWR Scientific Products, West Chester Pa.), washed thoroughly in distilled water, and coated with 0.05% aminopropyl silane (Sigma Aldrich) in 95% ethanol. Coated slides were cured in a 110° C. oven. cDNAs were applied to the coated glass substrate using a procedure described in U.S. Pat. No. 5,807,522. One microliter of the cDNA at an average concentration of 100 ng/μl was loaded into the open capillary printing element by a high-speed robotic apparatus which then deposited about 5 nl of cDNA per slide.
Microarrays were UV-crosslinked using a STRATALINKER UV-crosslinker (Stratagene), and then washed at room temperature once in 0.2% SDS and three times in distilled water. Non-specific binding sites were blocked by incubation of microarrays in 0.2% casein in phosphate buffered saline (Tropix, Bedford Mass.) for 30 minutes at 60° C. followed by washes in 0.2% SDS and distilled water as before.
HT29 cells were derived from a Grade II adenocarcinoma of the colon obtained from a person. HT29 adenocarcinoma cells (American Type Culture Collection, Manassas Va.) were cultured in McCoy's medium supplemented with 10% fetal bovine serum (Invitrogen) at 37° C. and 5% CO2. Treated cells were exposed to 500 nM 5-aza-2-deoxycytidine (Sigma-Aldrich) 24 hr after passage in complete culture medium. Control cultures were treated in parallel with phosphate buffered saline vehicle. After twenty-four hours, culture medium was replaced with drug-free medium. Control and 5-aza-2-deoxycytidine-treated cells were subcultured at equal densities at 1 and 5 days after the initial treatment, and proliferation was measured at the subsequent time point using a Coulter counter (Beckman Coulter, Fullerton Calif.). Cells were harvested 9 days after the initial treatment.
Cells were harvested and lysed in 1 ml of TRIZOL reagent (5×10^6 cells/ml; Invitrogen). The lysates were vortexed thoroughly and incubated at room temperature for 2-3 minutes and extracted with 0.5 ml chloroform. The extract was mixed, incubated at room temperature for 5 minutes, and centrifuged at 16,000×g for 15 minutes at 4° C. The aqueous layer was collected and an equal volume of isopropanol was added. Samples were mixed, incubated at room temperature for 10 minutes, and centrifuged at 16,000×g for 20 minutes at 4° C. The supernatant was removed and the RNA pellet was washed with 1 ml of 70% ethanol, centrifuged at 16,000×g at 4° C., and resuspended in RNAse-free water. The concentration of the RNA was determined by measuring the optical density at 260 nm.
Poly(A) RNA was prepared using an OLIGOTEX mRNA kit (Qiagen) with the following modifications: OLIGOTEX beads were washed in tubes instead of on spin columns, resuspended in elution buffer, and then loaded onto spin columns to recover mRNA. To obtain maximum yield, the mRNA was eluted twice. […]

polyp formation = conditions: in combination with a genetic reduction in DNA methyltransferase I activity; cited from earlier work
[4] = treated HT29 cells versus untreated cells

Nc1ncn([C@H]2C[C@H](O)[C@@H](CO)O2)c(=O)n1 [5-aza-2-deoxycytidine]
gene expression after treatment (HT-29 cells [1]): specific expression of several genes related to interferon (IFN) signaling | growth of HT-29 cells in culture (HT-29 cells [2]): inhibits growth | D.E. (log2) ([3]; SEQ ID NO 1, GAGE-8 [Homo sapiens], harvested 9 days after treatment): 3.45 log2 | D.E. (log2) ([3]; SEQ ID NO 2, GAGE-7B [Homo sapiens]): 2.51 log2 | D.E. (log2) ([3]; SEQ ID NO 3, p27 [Homo sapiens]): 2.08 log2 | D.E. (log2) ([3]; SEQ ID NO 4, MAGE-6 antigen [Homo sapiens]): 1.74 log2 | D.E. (log2) ([3]; SEQ ID NO 5, interferon-inducible protein [Homo sapiens]): 1.62 log2 | D.E. (log2) ([3]; SEQ ID NO 6, MAGE-9 antigen [Homo sapiens]): 1.57 log2 | D.E. (log2) ([3]; SEQ ID NO 7, interferon-inducible peptide precursor [Homo sapiens]): 1.56 log2 | D.E. (log2) ([3]; SEQ ID NO 8, transcription factor ISGF-3 [Homo sapiens]): 1.49 log2 | D.E. (log2) ([3]; SEQ ID NO 9, HLA Class I region, chromosome 6p21.3, section 6/20 [Homo sapiens]): 1.40 log2 | D.E. (log2) ([3]; SEQ ID NO 10, hypothetical protein [Homo sapiens]): 1.33 log2 | D.E. (log2) ([3]; SEQ ID NO 11, GAGE-8 protein [Homo sapiens]): 2.67 log2 | D.E. (log2) ([3]; SEQ ID NO 12, putative tumor antigen [Homo sapiens]): 2.57 log2 | D.E. (log2) ([3]; SEQ ID NO 13, semaphorin B [Mus musculus]): 1.92 log2 | D.E. (log2) ([3]; SEQ ID NO 14, Incyte Unique, Template 213413.1): 2.10 log2 | D.E. (log2) ([3]; SEQ ID NO 15, Incyte Unique, Template 032481.1): 1.76 log2 | D.E. (log2) ([3]; SEQ ID NO 16, HLA Class I region, chromosome 6p21.3 [Homo sapiens]): 1.67 log2 | D.E. (log2) ([3]; SEQ ID NO 17, proline rich synapse associated protein 1 [Rattus norvegicus]): 1.66 log2 | D.E. (log2) ([3]; SEQ ID NO 18, hepatitis C-associated microtubular aggregate protein p44 [Homo sapiens]): 1.53 log2 | D.E. (log2) ([3]; SEQ ID NO 19, S100P calcium-binding protein [Homo sapiens], negative = downregulation): −1.34 log2 | D.E. (log2) ([3]; SEQ ID NO 20, G0S2 protein [Homo sapiens], negative = downregulation): −1.41 log2 | D.E. (log2) ([3]; SEQ ID NO 21, progesterone-induced protein [Oryctolagus cuniculus], negative = downregulation): −1.42 log2 | D.E. (log2) ([3]; SEQ ID NO 22, phosphoenolpyruvate carboxykinase [Homo sapiens], negative = downregulation): −1.72 log2 | D.E. (log2) ([3]; SEQ ID NO 23, unnamed protein product [Homo sapiens], negative = downregulation): −1.74 log2 | D.E. (log2) ([3]; SEQ ID NO 24, cystine/glutamate transporter [Homo sapiens], negative = downregulation): −1.81 log2 | D.E. (log2) ([3]; SEQ ID NO 25, Incyte Unique, Template 200578.1, negative = downregulation): −1.63 log2 | differential expression values of each cDNA (SEQ ID NOs: 1-25) ([3]; treated HT29 cells relative to untreated HT29 cells, up- or downregulation): greater than 2.5 fold | upregulation of SEQ ID NO: 1 [3, 4]: > 5 fold | upregulation of SEQ ID NO: 2 [3, 4]: > 5 fold | upregulation of SEQ ID NO: 4 [3, 4]: > 3 fold | upregulation of SEQ ID NO: 6 [3, 4]: > 3 fold | upregulation of SEQ ID NO: 11 [3, 4]: > 5 fold | upregulation of SEQ ID NO: 12 [3, 4]: > 5 fold | polyp formation (polyp formation): reduced polyp formation
